The source of these data is ChEMBL document CHEMBL1144056, “Characterization of 6-epi-3-anhydroophiobolin B from Cochliobolus heterostrophus” (J Nat Prod, 1999).

Assay [1] concerns A549. The experiment in a line: Cytotoxicity against human A549 cells. Format: functional, cell-based.
Assay [2] relates to HT-29. The experiment in a line: Cytotoxicity against human HT-29 cells. In kind it is functional, cell-based.
Assay [3] can be described thus: Cytotoxicity against human Mel20 cells. Format: functional, cell-based.
For assay [4], the system named is P388. Kind of assay: Cytotoxicity against mouse P388 cells. Format: functional, cell-based.
Assay [5] deals with Plasmodium falciparum. Kind of assay: Antimalarial activity against Plasmodium falciparum D6. In kind it is functional, organism-based.
In assay [6] the test system is Plasmodium falciparum. The experiment in a line: Antimalarial activity against Plasmodium falciparum W2. In kind it is functional, organism-based.

≈ marks a conversion by molar mass, not a printed value.

What is called IC50 is the concentration at which inhibition is half-maximal. In the case of `CC(C)=C[C@H]1C[C@H](C)[C@]2(CC[C@]3(C)C[C@H]4[C@H](C(=O)C[C@@]4(C)O)/C(C=O)=C\C[C@H]32)O1` [OPHIOBOLIN A], the IC50 in assay [1] was 0.05 µg/mL (≈ 0.125 µM); in assay [2], 0.05 µg/mL (≈ 0.125 µM); in assay [3], 0.05 µg/mL (≈ 0.125 µM); in assay [4], 0.025 µg/mL (≈ 0.0624 µM); in assay [5], less than 0.529 µg/mL; in assay [6], 0.58 µg/mL (≈ 1.45 µM).
